Experiment [1] concerns the target T1, epithelial sodium channel (ENaC), β subunit (FLAG-tagged β-ENaC) (Rattus norvegicus, UniProt P37089+P37090+P37091).
T1 sequence (P37090 1-638): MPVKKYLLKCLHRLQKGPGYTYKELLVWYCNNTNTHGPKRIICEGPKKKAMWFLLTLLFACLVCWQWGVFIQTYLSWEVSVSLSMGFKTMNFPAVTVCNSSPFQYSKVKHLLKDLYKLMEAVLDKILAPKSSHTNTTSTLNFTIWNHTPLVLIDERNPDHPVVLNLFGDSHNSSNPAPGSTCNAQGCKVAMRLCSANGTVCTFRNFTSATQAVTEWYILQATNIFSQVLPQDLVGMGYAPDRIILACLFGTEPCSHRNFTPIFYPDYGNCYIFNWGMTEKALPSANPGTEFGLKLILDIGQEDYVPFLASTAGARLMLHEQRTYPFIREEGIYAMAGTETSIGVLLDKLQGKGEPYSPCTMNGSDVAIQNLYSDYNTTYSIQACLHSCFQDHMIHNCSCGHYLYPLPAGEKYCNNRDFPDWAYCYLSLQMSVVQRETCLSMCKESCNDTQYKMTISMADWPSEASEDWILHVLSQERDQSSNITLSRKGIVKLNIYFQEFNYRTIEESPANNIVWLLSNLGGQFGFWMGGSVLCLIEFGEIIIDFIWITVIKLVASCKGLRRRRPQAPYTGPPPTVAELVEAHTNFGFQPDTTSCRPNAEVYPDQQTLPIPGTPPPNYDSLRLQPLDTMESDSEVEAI
T1 sequence (P37089 1-698): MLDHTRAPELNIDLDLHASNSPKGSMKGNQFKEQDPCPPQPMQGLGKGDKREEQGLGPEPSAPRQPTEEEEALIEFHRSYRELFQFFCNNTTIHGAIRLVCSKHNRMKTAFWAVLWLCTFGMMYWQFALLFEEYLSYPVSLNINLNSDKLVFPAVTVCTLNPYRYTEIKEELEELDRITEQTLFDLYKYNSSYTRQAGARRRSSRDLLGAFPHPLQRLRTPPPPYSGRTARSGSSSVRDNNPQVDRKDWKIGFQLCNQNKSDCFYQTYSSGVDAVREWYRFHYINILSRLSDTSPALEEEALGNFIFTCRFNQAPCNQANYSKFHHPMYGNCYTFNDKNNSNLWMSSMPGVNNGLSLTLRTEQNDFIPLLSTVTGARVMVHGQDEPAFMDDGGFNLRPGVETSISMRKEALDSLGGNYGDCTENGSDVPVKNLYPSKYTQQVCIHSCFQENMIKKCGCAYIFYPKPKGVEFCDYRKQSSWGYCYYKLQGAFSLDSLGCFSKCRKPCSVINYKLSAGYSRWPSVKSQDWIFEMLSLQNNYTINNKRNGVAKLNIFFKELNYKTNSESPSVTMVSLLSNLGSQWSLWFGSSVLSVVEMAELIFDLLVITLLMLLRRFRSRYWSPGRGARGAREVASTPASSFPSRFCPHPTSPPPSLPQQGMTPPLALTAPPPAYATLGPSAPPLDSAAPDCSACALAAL
T1 sequence (P37091 1-650): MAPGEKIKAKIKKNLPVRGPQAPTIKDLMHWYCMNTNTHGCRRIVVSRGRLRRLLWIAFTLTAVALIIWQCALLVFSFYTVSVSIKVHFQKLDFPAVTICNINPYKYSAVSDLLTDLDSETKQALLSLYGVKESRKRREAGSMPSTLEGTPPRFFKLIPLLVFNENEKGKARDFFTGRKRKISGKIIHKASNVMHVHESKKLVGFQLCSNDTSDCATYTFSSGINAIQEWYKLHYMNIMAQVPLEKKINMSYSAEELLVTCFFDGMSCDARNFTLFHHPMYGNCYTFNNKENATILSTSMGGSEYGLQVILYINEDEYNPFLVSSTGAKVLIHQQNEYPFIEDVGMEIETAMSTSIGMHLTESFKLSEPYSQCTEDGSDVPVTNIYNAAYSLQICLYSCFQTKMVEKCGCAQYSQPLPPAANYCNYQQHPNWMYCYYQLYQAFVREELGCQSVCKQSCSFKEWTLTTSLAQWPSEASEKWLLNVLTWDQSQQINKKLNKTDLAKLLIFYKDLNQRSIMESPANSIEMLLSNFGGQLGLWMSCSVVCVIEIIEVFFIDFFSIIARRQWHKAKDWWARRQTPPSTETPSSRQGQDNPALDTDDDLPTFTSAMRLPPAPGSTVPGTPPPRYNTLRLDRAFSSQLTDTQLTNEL
The experiment is described as follows: dose-response block of short-circuit current in MDCK monolayers. The experiment is classed as cell-based.

The target of experiment [2] is T2, epithelial sodium channel (ENaC), β subunit (FLAG-tagged/G525C β-ENaC) (Rattus norvegicus, UniProt P37089+P37090+P37091, P37090:G525C).
T2 sequence (P37090 1-638 G525C): T1 sequence (P37090 1-638) with G525C
T2 sequence (P37089 1-698): T1 sequence (P37089 1-698)
T2 sequence (P37091 1-650): T1 sequence (P37091 1-650)
The description is as above. Type of experiment: cell-based.

Numbering of substitutions follows the chain as printed.

As usually defined, the Ki is a measure of affinity in units of concentration, obtained from inhibition or displacement. A high value points to weaker binding. On to `N=C(N)NC(=O)c1nc(Cl)c(N)nc1N` [amiloride], for which the Ki in experiment [1] turned out to be 0.084 µM; in experiment [2], 36 µM.

Take `NC(=NCc1ccccc1)NC(=O)c1nc(Cl)c(N)nc1N` [benzamil]: the inhibition constant (Ki) in experiment [1] was found to be 0.018 µM; in experiment [2] it was 2.9 µM.

Source of the values: paper PMC2151644 (The Journal of General Physiology, 2007).
